The text below walks through data of patent US20100022509A1, “Inhibitors of MshC and Homologs Thereof, and Methods of Identifying Same” (priority 2006, published 2010).

Read-outs that look alike come from different tables or passages of the source.

In this test the target is T1, MshC (Mycobacterium tuberculosis, UniProt P9WJM9).
T1 sequence (P9WJM9 1-414): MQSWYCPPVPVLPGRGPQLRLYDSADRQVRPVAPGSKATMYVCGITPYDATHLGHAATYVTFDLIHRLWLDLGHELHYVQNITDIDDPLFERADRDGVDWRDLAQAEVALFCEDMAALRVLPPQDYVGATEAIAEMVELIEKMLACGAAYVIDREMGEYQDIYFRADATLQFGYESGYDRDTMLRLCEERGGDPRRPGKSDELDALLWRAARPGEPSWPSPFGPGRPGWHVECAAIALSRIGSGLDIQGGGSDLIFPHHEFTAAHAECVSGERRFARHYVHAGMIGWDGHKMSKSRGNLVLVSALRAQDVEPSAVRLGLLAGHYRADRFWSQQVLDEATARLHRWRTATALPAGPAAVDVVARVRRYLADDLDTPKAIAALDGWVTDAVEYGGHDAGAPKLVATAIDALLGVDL
Kind of test: biochemical. It counts as biochemical, M. tuberculosis.

`Nc1ncnc2c1ncn2[C@@H]1O[C@H](COS(=O)(=O)NC(=O)[C@@H](N)CS)[C@@H](O)[C@H]1O` [5′-O-[N-(L-cysteinyl)sulfamoyl]adenosine, reference compound]: the half-maximal inhibitory concentration (IC50) (usually the point on the concentration scale where inhibition reaches its midpoint) (assayed under the conditions described in [0186], read-out: IC50 (inhibits MshC)) is about 4e-05 mM. Under “IC50”, `CCC1CCCCN1CCCNC(=O)c1ccc2c(c1)N(Cc1ccccc1F)C(=O)c1ccccc1[S+]2[O-]` (stereo not drawn) [Inhibitor 83-01] registered a half-inhibitory concentration (IC50) of over 3 mM. Take `O=C(NCCCN1CCC(Cc2ccccc2)CC1)c1ccc2c(c1)N(Cc1ccccc1F)C(=O)c1ccccc1[S+]2[O-]` (stereo not drawn) [Inhibitor 83-02]: the “inhibition of MshC in words, compounds lacking the basic amino group or with groups in excess of 10 carbons on the remote amino residue” value (from here on “inhibition of MshC … on the remote amino residue”) was “little or no inhibition”. Under “IC50”, this molecule registered a concentration for half-maximal inhibition (IC50) of over 3 mM. `CN(CCCNC(=O)c1ccc2c(c1)N(Cc1ccccc1F)C(=O)c1ccccc1[S+]2[O-])C1CCCCC1` (stereo not drawn) [Inhibitor 83-03] returned an IC50 (IC50) of over 3 mM. Still for that read-out and setting: next, `O=C(NCCCSC1CCCCC1)c1ccc2c(c1)N(Cc1ccccc1F)C(=O)c1ccccc1[S+]2[O-]` (stereo not drawn) [Inhibitor 83-04]: over 3 mM; `CCCN(CCC)CCCNC(=O)c1ccc2c(c1)N(Cc1ccc(F)cc1)C(=O)c1ccccc1[S+]2[O-]` (stereo not drawn) [Inhibitor 83-05]: over 3 mM. Consider `CCN(CC)CCCNC(=O)c1ccc2c(c1)N(Cc1cc(C)ccc1C)C(=O)c1ccccc1[S+]2[O-]` (stereo not drawn) [Inhibitor 83-06], for which the IC50 (IC50) was over 3 mM. Regarding `Cc1ccc(C)c(CN2C(=O)c3ccccc3[S+]([O-])c3ccc(C(=O)NCCCN4CCCCCC4)cc32)c1` (stereo not drawn) [Inhibitor 83-07], the “inhibition of MshC in words, 1,3-diaminopropyl residue with remote amino residue capable of protonation” value (shortened to “inhibition of MshC in words … of protonation”) was “measurable inhibition” and the “inhibition of MshC in words, Z benzyl moiety with methyl groups in the 2,5 positions or unsubstituted” value is on record as “Weak but detectable inhibition”. This molecule gave an IC50 (IC50) of 0.65 ± 0.05 mM. The “inhibition of MshC in words, compounds grouped by X” value (“inhibition of MshC in words … by X” below) (X=S, X=SO, X=SO2) is “Significant inhibition”. In turn, `Cc1ccc(C)c(CN2C(=O)c3ccccc3[S+]([O-])c3ccc(C(=O)NCCCN(C)C4CCCCC4)cc32)c1` (stereo not drawn) [Inhibitor 83-08] had a half-inhibitory concentration (IC50) (IC50) of about 3 mM. Under “X=S, X=SO, X=SO2”, the “inhibition of MshC in words … by X” value is recorded as “Significant inhibition”.

`Cc1ccc(C)c(CN2C(=O)c3ccccc3[S+]([O-])c3ccc(C(=O)NCCCSC4CCCCC4)cc32)c1` (stereo not drawn) [Inhibitor 83-09]: for the setting “IC50”, the IC50 is over 3 mM. Turning to `O=C(NCCCN1CCOCC1)c1ccc2c(c1)N(Cc1ccccc1)C(=O)c1ccccc1[S+]2[O-]` (stereo not drawn) [Inhibitor 83-10], the 50% inhibitory concentration (IC50) (IC50) is over 3 mM. Consider `CN(CCCNC(=O)c1ccc2c(c1)N(Cc1ccccc1)C(=O)c1ccccc1[S+]2[O-])C1CCCCC1` (stereo not drawn) [Inhibitor 83-11], for which the “inhibition of MshC in words … of protonation” value is “measurable inhibition”. Also, the IC50 (IC50) was found to be 0.4 ± 0.1 mM. Also, the “inhibition of MshC in words … by X” value (X=S, X=SO, X=SO2) is listed as “Significant inhibition”. As for `O=C(NCCCSC1CCCCC1)c1ccc2c(c1)N(Cc1ccccc1)C(=O)c1ccccc1[S+]2[O-]` (stereo not drawn) [Inhibitor 83-12], the “inhibition of MshC … on the remote amino residue” value is “little or no inhibition”. For the setting “IC50”, this molecule registered an IC50 of over 3 mM. For the molecule `CCN1C(=O)c2ccccc2[S+]([O-])c2ccc(C(=O)NCCCN3CCOCC3)cc21` (stereo not drawn) [Inhibitor 83-13], under “IC50”, the half-maximal inhibitory concentration (IC50) is over 3 mM. In turn, `CCN1C(=O)c2ccccc2[S+]([O-])c2ccc(C(=O)NCCCN3CCN(C)CC3)cc21` (stereo not drawn) [Inhibitor 83-14] yielded an IC50 (IC50) of over 3 mM.

For the molecule `CCN1C(=O)c2ccccc2[S+]([O-])c2ccc(C(=O)NCCCN3CCCCCC3)cc21` (stereo not drawn) [Inhibitor 83-15], the IC50 (IC50) was over 3 mM. `CCCN(CCC)CCCNC(=O)c1ccc2c(c1)N(CC)C(=O)c1ccccc1[S+]2[O-]` (stereo not drawn) [Inhibitor 83-16] showed a half-inhibitory concentration (IC50) (IC50) of over 3 mM. Still for that read-out and setting: next, `CCCCN(CCCC)CCCNC(=O)c1ccc2c(c1)N(CC)C(=O)c1ccccc1[S+]2[O-]` (stereo not drawn) [Inhibitor 83-17]: over 3 mM. On the same count and under the same terms, next, `CCN1C(=O)c2ccccc2[S+]([O-])c2ccc(C(=O)NCCCSC3CCCCC3)cc21` (stereo not drawn) [Inhibitor 83-18]: over 3 mM. As to `CCN1C(=O)c2ccccc2S(=O)(=O)c2ccc(C(=O)NCCCN3CCCCCC3)cc21` [Inhibitor 83-19], for the setting “IC50”, the IC50 was about 3 mM.

`CCCCN(CC)CCCNC(=O)c1ccc2c(c1)N(CC)C(=O)c1ccccc1S2(=O)=O` [Inhibitor 83-20] gave an IC50 (IC50) of over 3 mM. For the molecule `CCC1CCCCN1CCCNC(=O)c1ccc2c(c1)N(Cc1cccc(C)c1)C(=O)c1ccccc1S2(=O)=O` (stereo not drawn) [Inhibitor 83-21], for the setting “IC50”, the concentration for half-maximal inhibition (IC50) is about 2 mM. Still for that read-out and setting: for `Cc1cccc(CN2C(=O)c3ccccc3S(=O)(=O)c3ccc(C(=O)NCCCN4CCCC4)cc32)c1` [Inhibitor 83-22] the value was over 3 mM. Under “IC50”, `Cc1cccc(CN2C(=O)c3ccccc3S(=O)(=O)c3ccc(C(=O)NCCCN4CCCCCC4)cc32)c1` [Inhibitor 83-23] returned an IC50 of over 3 mM. Still for that read-out and setting: next, `CCCCN(C)CCCNC(=O)c1ccc2c(c1)N(Cc1cccc(C)c1)C(=O)c1ccccc1S2(=O)=O` [Inhibitor 83-24]: 1.5 ± 0.5 mM; `Cc1cccc(CN2C(=O)c3ccccc3S(=O)(=O)c3ccc(C(=O)NCCCN(C)C4CCCCC4)cc32)c1` [Inhibitor 83-25]: over 3 mM.

As to `O=C(NCCCN1CCN(c2cccc(Cl)c2)CC1)c1ccc2c(c1)N(Cc1ccc(Cl)cc1)C(=O)c1ccccc1S2(=O)=O` [Inhibitor 83-26], the “inhibition of MshC … on the remote amino residue” value is given as “little or no inhibition”. Where the note is “IC50”, this molecule had a half-inhibitory concentration (IC50) of over 3 mM. As to `CCC1CCCCN1CCCNC(=O)c1ccc2c(c1)N(Cc1ccc(Cl)cc1)C(=O)c1ccccc1S2(=O)=O` (stereo not drawn) [Inhibitor 83-27], the “inhibition of MshC in words … of protonation” value is recorded as “measurable inhibition” and the “inhibition of MshC in words, Z is a benzyl moiety bearing one or more halogens” value was “Measurable inhibition”. This molecule also had an IC50 (IC50) of 0.7 ± 0.25 mM. The “inhibition of MshC in words … by X” value (X=S, X=SO, X=SO2) was “Significant inhibition”. Consider `O=C(NCCCN1CCCC1)c1ccc2c(c1)N(Cc1ccc(Cl)cc1)C(=O)c1ccccc1S2(=O)=O` [Inhibitor 83-28], for which the “inhibition of MshC in words … of protonation” value is listed as “measurable inhibition”; the “inhibition of MshC in words, Z is a benzyl moiety bearing one or more halogens” value is listed as “Measurable inhibition”; the “inhibition of MshC in words … by X” value is “Significant inhibition”. For the same molecule, where the note is “IC50”, half-maximal inhibition (IC50) was put at 0.25 ± 0.1 mM.

`CC1CC(C)CN(CCCNC(=O)c2ccc3c(c2)N(Cc2ccc(Cl)cc2)C(=O)c2ccccc2S3(=O)=O)C1` (stereo not drawn) [Inhibitor 83-29]: the IC50 (IC50) was over 3 mM.

For the setting “IC50”, `CC1CCCCN1CCNC(=O)c1ccc2c(c1)N(Cc1ccc(Cl)cc1)C(=O)c1ccccc1S2(=O)=O` (stereo not drawn) [Inhibitor 83-30] returned an IC50 of over 3 mM. Regarding `O=C(NCCCN1CCN(c2ccc(F)cc2)CC1)c1ccc2c(c1)N(Cc1ccc(Cl)cc1)C(=O)c1ccccc1S2(=O)=O` [Inhibitor 83-32], the “inhibition of MshC … on the remote amino residue” value is given as “little or no inhibition”. In addition, the IC50 (IC50) was about 2 mM. As to `O=C(NCCCN1CCC(Cc2ccccc2)CC1)c1ccc2c(c1)N(Cc1ccc(Cl)cc1)C(=O)c1ccccc1S2(=O)=O` [Inhibitor 83-33], the “inhibition of MshC … on the remote amino residue” value was “little or no inhibition”. Moreover, the IC50 (IC50) is over 3 mM. Regarding `CC(C)CN(CCCNC(=O)c1ccc2c(c1)N(Cc1ccc(Cl)cc1)C(=O)c1ccccc1S2(=O)=O)CC(C)C` [Inhibitor 83-34], where the note is “IC50”, the IC50 was over 3 mM. Regarding `CN(CCCNC(=O)c1ccc2c(c1)N(Cc1ccc(Cl)cc1)C(=O)c1ccccc1S2(=O)=O)C1CCCCC1` [Inhibitor 83-35], inhibition (IC50) was half-maximal at 0.35 ± 0.04 mM (IC50). In addition, the “inhibition of MshC in words … by X” value (X=S, X=SO, X=SO2) is “Significant inhibition”. In turn, `CN(CCCNC(=O)c1ccc2c(c1)N(Cc1ccc(Cl)cc1)C(=O)c1ccccc1S2(=O)=O)c1ccccc1` [Inhibitor 83-36] showed an IC50 (IC50) of over 3 mM. In the case of `O=C(NCCN1CCCC1)c1ccc2c(c1)N(Cc1ccccc1F)C(=O)c1ccccc1S2(=O)=O` [Inhibitor 83-39], the “inhibition of MshC in words … of protonation” value is given as “measurable inhibition” and the “inhibition of MshC in words, Z is a benzyl moiety bearing one or more halogens” value is recorded as “Measurable inhibition”. Further, the IC50 (IC50) came to 0.1 ± 0.02 mM. For the same molecule, the “inhibition of MshC in words … by X” value (X=S, X=SO, X=SO2) is on record as “Significant inhibition”. The corresponding values for `CC1CCCN(CCCNC(=O)c2ccc3c(c2)N(Cc2ccccc2F)C(=O)c2ccccc2S3(=O)=O)C1` (stereo not drawn) [Inhibitor 83-40] are “measurable inhibition”, “Measurable inhibition”, 0.1 ± 0.03 mM and “Significant inhibition”. As for `O=C(NCCN1CCN(Cc2ccccc2)CC1)c1ccc2c(c1)N(Cc1ccccc1F)C(=O)c1ccccc1S2(=O)=O` [Inhibitor 83-42], the “inhibition of MshC … on the remote amino residue” value is on record as “little or no inhibition”. For the same molecule, the IC50 (IC50) is over 3 mM.

`Cc1ccc(C)c(CN2C(=O)c3ccccc3S(=O)(=O)c3ccc(C(=O)NCCCN4CCOCC4)cc32)c1` [Inhibitor 83-43]: the IC50 (IC50) is over 3 mM. In the case of `Cc1ccc(C)c(CN2C(=O)c3ccccc3S(=O)(=O)c3ccc(C(=O)NCCCN4CCCCCC4)cc32)c1` [Inhibitor 83-44], the “inhibition of MshC in words … of protonation” value is listed as “measurable inhibition”. In addition, the IC50 (IC50) was over 0.5 mM. `Cc1ccc(C)c(CN2C(=O)c3ccccc3S(=O)(=O)c3ccc(C(=O)NCCN4CCCCC4C)cc32)c1` (stereo not drawn) [Inhibitor 83-45] registered an IC50 (IC50) of over 3 mM. On to `Cc1ccc(C)c(CN2C(=O)c3ccccc3S(=O)(=O)c3ccc(C(=O)NCCCN(C)C4CCCCC4)cc32)c1` [Inhibitor 83-46], for which the IC50 (IC50) is at least 0.5 mM.
